Values quoted from earlier work, collected in patent publication US20050187278A1, “Treatment or prevention of vascular disorders with Cox-2 inhibitors in combination with cyclic AMP-specific phosphodiesterase inhibitors” (Pharmacia Corporation, priority 2003, published 2005).
One block for each compound: values may come before it.

Experiments:
PDE3 = conditions: first of two values given 'respectively' for PDE3 and 4
PDE4 [1] = conditions: second of two values given 'respectively' for PDE3 and 4
PDE4 [2] = tested on: PDE4

IC50 (PDE3): 500 nM
IC50 (PDE4 [1]): 800 nM
SMILES: COc1cc(-c2ccc(=O)[nH]n2)ccc1OC(F)F [Compound C8, 6-[4-(Difluoromethoxy)-3-methoxyphenyl]-3(2H)-pyridazinone]

SMILES: COc1ccc([C@H]2CNC(=O)C2)cc1OC1CCCC1 [Compound C7, (4S)-4-[3-(Cyclopentyloxy)-4-methoxyphenyl]pyrrolidin-2-one]
activity relative to the other enantiomer of the PDE4 inhibitor rolipram (PDE4 [2]; in words): Less active

SMILES: COc1ccc([C@@H]2CNC(=O)C2)cc1OC1CCCC1 [Compound C6, (4R)-4-[3-(Cyclopentyloxy)-4-methoxyphenyl]pyrrolidin-2-one]
fold more potent than the S-(+) enantiomer (PDE4 [2]; PDE4 inhibitor rolipram, R-(-) versus S-(+) enantiomer): rolipram; 2-10-fold
